Holding throughout (format): in vivo
The subject of data set [1] is small brown planthopper. In words: whole plant or invertebrate. Conditions: Laodelphax striatellus, 72 h. On the procedure:
(§1) Rice seedlings grown in pots were subjected to soil drenching treatment with solutions of the inventive compounds at a predetermined concentration prepared to 10% acetone/water. Three days following treatment, ten second-instar small brown planthopper larvae were released onto each seedling. The treated seedlings and larvae were then held in an incubation chamber at 25° C. (16-hour period of light, 8-hour dark period). Three days after released, the numbers of live and dead insects were counted, and the mortality was calculated from the following formula. The test was carried out as two replications. Mortality (%)=[number of dead insects/(number of live insects+number of dead insects)]×100

Data set [2] has as its system brown rice planthopper having a low susceptibility to insecticides. Further details: key to Brown rice planthopper, Kumamoto low susceptibility (rice soil drenching), effect: mortality %, dead/(live+dead) ×100. The following applies: rice soil drenching, 0.05 mg/pot. On the procedure:
as §1, with “days after” for “days following”, “second-instar” for “second-instar small”, “brown rice” for “brown”, “larvae having a low susceptibility to insecticides” for “larvae”, “The” for “The treated”, “and insects” for “and larvae”
The pests used in this test were insects that had been raised indoors for successive generations over a long period of time (susceptible line), and insects that had been raised indoors for successive generations after being collected (I) in 2007 within Kumamoto Prefecture and (II) in 2005 within Fukuoka Prefecture (field-collected lines).

The test system of data set [3] is cotton aphid. In words: whole plant or invertebrate. The following applies: Aphis gossypii, foliar. On the procedure: (§2) Leaf discs 2.0 cm in diameter were cut from cucumber plants grown in pots, and these were sprayed with solutions of the inventive compounds at a predetermined concentration prepared to 50% acetone/water (containing 0.05% Tween 20). The treated leaf discs were air dried, following which first-instar larvae were released onto the discs. The leaf discs and larvae were then held in an incubation chamber at 25° C. (16-hour period of light, 8-hour dark period). Three days after released, the numbers of live and dead insects were counted, and the mortality was calculated from the following formula. This was a two-replication test. Mortality (%)=[number of dead insects/(number of live insects+number of dead insects)]×100

For data set [4], the system named is diamondback moth. The data set is described as follows: whole plant or invertebrate. The following applies: Plutella xylostella, foliar. Here is the method:
as §2, with “5.0” for “2.0”, “cabbage” for “cucumber”, “second-instar” for “first-instar”

Data set [5] deals with small brown planthopper. The data set is described as follows: whole plant or invertebrate. Conditions: Laodelphax striatellus, in Triticum aestivum, 96 h. On the procedure:
as §1, with “Wheat seedling roots 48 hours after sowing” for “Rice seedlings grown in pots”, “treated” for “subjected to soil drenching treatment”, “After allowing the roots to absorb the chemical for 72 hours,” for “Three days following treatment,”, “Four” for “Three”

Data set [6] has as its system common cutworm. In words: whole plant or invertebrate. The following applies: foliar application, 500 ppm. On the procedure:
as §2, with “5.0” for “2.0”, “cabbage” for “cucumber”, “third-instar” for “first-instar”

For data set [7], the system named is western flower thrips. In words: whole plant or invertebrate. Conditions: Frankliniella occidentalis, foliar. Here is the method:
as §2, with “2.8” for “2.0”, “bean” for “cucumber”

[8] abbreviates: rice soil drenching, 0.05 mg/pot (Table 13), read-out: Small brown planthopper (rice soil drenching), effect.
Where [9] appears, read: rice soil drenching, 0.01 mg/pot (Table 13), read-out: Small brown planthopper (rice soil drenching), effect.
The mark [10] stands for this setting: soil, read-out: Small brown planthopper (rice soil drenching), effect.
Where [11] appears, read: read-out: Insecticidal effects (mortality), diamondback moth second-instar larvae.
Setting [12] is: read-out: Insecticidal effects (mortality), western flower thrips first-instar larvae.
Setting [13] is: read-out: Insecticidal effects (mortality), cotton aphid first-instar larvae.
Setting [14] is: read-out: Insecticidal effects (mortality), small brown planthopper second-instar larvae.
Where [15] appears, read: soil, read-out: Insecticidal effects (mortality), small brown planthopper second-instar larvae.

Where two headings read alike, the source gives them in different places.

Turning to `N#CN=c1ccccn1Cc1ccc(Cl)nc1` [Comparative Example 2, N-[1-((6-chloropyridin-3-yl)methyl)pyridin-2(1H)-ylidene]cyanamide, reference compound], in data set [1] (setting [8]), the pest or weed control at 0.05 mg/pot amounted to 20%.

With `CC(=O)/N=c1\ccccn1Cc1ccc(Cl)nc1` [Comparative Example 3, N-[1-((6-chloropyridin-3-yl)methyl)pyridin-2(2H)-ylidene]acetamide, reference compound], in data set [1] (setting [8]), the pest or weed control at 0.05 mg/pot turned out to be 10%.

Turning to `O=C(/C=C1\NCCN1Cc1ccc(Cl)nc1)C(F)(F)F` [Comparative Example 4, 3-[1-((6-chloropyridin-3-yl)methyl)imidazolidin-2-ylidene]-1,1,1-trifluoropropan-2-one, reference compound], the “Brown rice planthopper, Kumamoto low susceptibility (rice soil drenching), effect” value (shortened to “Brown rice planthopper”) in data set [2] is recorded as 45. Further, in data set [1] (setting [9]), the pest or weed control at 0.01 mg/pot is 20%. Further, the pest or weed control at 0.05 mg/pot in data set [1] (setting [8]) was 100%.

As for `O=C(/C=C1\SCCN1Cc1ccc(Cl)nc1)C(F)(F)F` [Comparative Example 5, 3-[3-((6-chloropyridin-3-yl)methyl)thiazolidin-2-ylidene]-1,1,1-trifluoropropan-2-one, reference compound], in data set [2], the “Brown rice planthopper” value was found to be 25. The pest or weed control at 0.01 mg/pot in data set [1] (setting [9]) amounted to 15%. The pest or weed control at 0.05 mg/pot in data set [1] (setting [8]) is 95%.

Consider `O=C(C(C(=O)C(F)(F)F)=C1NCCN1Cc1ccc(Cl)nc1)C(F)(F)F` [Comparative Example 6, 3-[1-((6-chloropyridin-3-yl)methyl)imidazolidin-2-ylidene]-1,1,1,5,5,5-hexafluoropentan-2,4-dione, reference compound], for which, in data set [2], the “Brown rice planthopper” value worked out at 25. Also, in data set [1] (setting [10]), the pest or weed control at 0.01 mg/pot was determined as 20% and the pest or weed control at 0.05 mg/pot was 100%.

`O=C(/N=C1\SCCN1Cc1ccc(Cl)nc1)C(F)(F)F` [Comparative Example 8, N-[3-((6-chloropyridin-3-yl)methyl)thiazolidin-2-ylidene]-2,2,2-trifluoroacetamide, reference compound]: in data set [1] (setting [8]), the pest or weed control at 0.05 mg/pot came out at 20%.

As to `N#CNCc1ccc(Cl)nc1` [Compound 1 in Patent Document 1, N-[(6-chloropyridin-3-yl)methyl]cyanamide, reference compound], in data set [3] (in Cucumis sativus, 72 h), the mortality at 500 ppm turned out to be 65%.

In data set [4] (in Brassica oleracea, 72 h), `O=C(N=c1ccccn1Cc1ccc(Cl)nc1)C(Cl)(Cl)Cl` [Compound 235, 2,2,2-trichloro-N-[1-((6-chloropyridin-3-yl)methyl)pyridin-2(1H)-ylidene]acetamide] registered a mortality at 100 ppm of at least 80% and a mortality at 500 ppm of at least 80%. In data set [3] (in Cucumis sativus, 72 h), this compound came in with a mortality at 20 ppm of at least 80%, a mortality at 100 ppm of at least 80% and a mortality at 500 ppm of at least 80%. Moreover, the mortality at 20 µg/seedling in data set [5] is at least 80%.

For `CC(c1ccc(Cl)nc1)n1ccccc1=NC(=O)C(F)(F)F` (centres unmarked) [Compound 237, N-[1-(1-(6-chloropyridin-3-yl)ethyl)pyridin-2(1H)-ylidene]-2,2,2-trifluoroacetamide], in data set [6], the “Insecticidal effects (mortality), common cutworm third-instar larvae” value amounted to 33. Also, in data set [4] (setting [11]), the mortality at 20 ppm worked out at 100%, the mortality at 100 ppm was 100% and the mortality at 500 ppm came out at 100%. In data set [4] (in Brassica oleracea, 72 h), the mortality at 100 ppm is at least 80% and the mortality at 500 ppm is at least 80%. In addition, the mortality at 500 ppm in data set [7] (72 h) was at least 80%. The mortality at 500 ppm in data set [7] (setting [12]) was determined as 90%. In addition, in data set [3] (setting [13]), the mortality at 20 ppm worked out at 85%, the mortality at 100 ppm was found to be 100% and the mortality at 500 ppm worked out at 100%. In addition, in data set [3] (in Cucumis sativus, 72 h), the mortality at 20 ppm is at least 80%, the mortality at 100 ppm is at least 80% and the mortality at 500 ppm is at least 80%. The mortality at 20 µg/seedling in data set [5] is at least 80%. In addition, in data set [5] (setting [14]), the mortality at 0.5 mg/seedling stood at 50%, the mortality at 2 mg/seedling came to 100% and the mortality at 20 mg/seedling stood at 100%. In data set [1] (setting [9]), the pest or weed control at 0.01 mg/pot was found to be 75%. Moreover, the pest or weed control at 0.05 mg/pot in data set [1] (setting [8]) was 100%. This compound also displayed a mortality at 0.05 mg/seedling in data set [1] (soil) of at least 80%. In data set [1] (setting [15]), the mortality at 0.01 mg/pot worked out at 75% and the mortality at 0.05 mg/pot came to 100%.

For `O=C(N=c1ccccn1Cc1ccc(Cl)nc1)C(F)F` [Compound 238, N-[1-((6-chloropyridin-3-yl)methyl)pyridin-2(1H)-ylidene]-2,2-difluoroacetamide], the “Insecticidal effects (mortality), common cutworm third-instar larvae” value in data set [6] is 0. Also, in data set [4] (setting [11]), the mortality at 20 ppm came out at 60% and the mortality at 100 ppm came to 100%. This compound showed a mortality at 100 ppm in data set [4] (in Brassica oleracea, 72 h) of at least 80%. The mortality at 100 ppm in data set [7] (72 h) is at least 80%. In addition, the mortality at 100 ppm in data set [7] (setting [12]) was 95%. Moreover, in data set [3] (setting [13]), the mortality at 1.25 ppm amounted to 100%, the mortality at 5 ppm came out at 100%, the mortality at 20 ppm was determined as 100% and the mortality at 100 ppm is 100%. Besides, in data set [3] (in Cucumis sativus, 72 h), the mortality at 20 ppm was at least 80% and the mortality at 100 ppm is at least 80%. In data set [5], this compound had a mortality at 20 µg/seedling of at least 80%. For the same compound, in data set [5] (setting [14]), the mortality at 0.063 mg/seedling turned out to be 25%, the mortality at 0.25 mg/seedling is 100%, the mortality at 0.5 mg/seedling came out at 100% and the mortality at 2 mg/seedling is 100%. Besides, the mortality at 20 mg/seedling in data set [5] (setting [14]) stood at 100%. Moreover, in data set [1] (rice soil drenching, 0.005 mg/pot (Table 13), read-out: Small brown planthopper (rice soil drenching), effect), the pest or weed control at 0.005 mg/pot came out at 33%. Further, in data set [1] (setting [9]), the pest or weed control at 0.01 mg/pot came out at 100%. The pest or weed control at 0.05 mg/pot in data set [1] (setting [8]) worked out at 100%. The mortality at 0.05 mg/seedling in data set [1] (soil) was at least 80%. In addition, in data set [1] (setting [15]), the mortality at 0.005 mg/pot amounted to 33%, the mortality at 0.01 mg/pot was found to be 100% and the mortality at 0.05 mg/pot was found to be 100%.

Take `O=C(N=c1ccccn1Cc1ccc(Cl)nc1)C(Br)Br` [Compound 241, 2,2-dibromo-N-[1-((6-chloropyridin-3-yl)methyl)pyridin-2(1H)-ylidene]-acetamide]: the mortality at 500 ppm in data set [4] (in Brassica oleracea, 72 h) was at least 80%. In data set [3] (in Cucumis sativus, 72 h), this compound showed a mortality at 20 ppm of at least 80% and a mortality at 100 ppm of at least 80%. In data set [5], this compound came in with a mortality at 20 µg/seedling of at least 80%.

As a reminder, the mortality is the share of the test organisms that died.

Values taken from patent publication US10085449B2, “N-[1-((6-chloropyridin-3-yl)methyl)pyridin-2(1H)-ylidene]-2,2,2- trifluoroacetamide for control of agricultural/horticultural pests” (priority 2010, dated 2018).
